This is an account of results in patent US8513251B2, “Pyridazinone compounds” (Takeda Pharmaceutical Company Limited, priority 2009, dated 2013).

pIC50: −log10 of the molar value. Where a name gives a salt, the structure may show the parent alone.

System in one data set: not given
Test: not given
Settings: not given
Take `COc1cn(-c2ccc(OS(=O)(=O)C(F)(F)F)cc2F)nc(-c2ccnn2-c2ccccc2)c1=O` (as salt: methanesulfonate) [Example 93, 3-Fluoro-4-[5-methoxy-4-oxo-3-(1-phenyl-1H-pyrazol-5-yl)pyridazin-1(4H)-yl]phenyl trifluoromethanesulfonate]: the melting point – broadly, the temperature of the solid-liquid transition – was in the range of 108 to 110 °C.
For `Cc1ccc(-n2nccc2-c2nn(-c3cccc(C(F)(F)F)c3)ccc2=O)cc1` [Example 1, 3-[1-(4-Methylphenyl)-1H-pyrazol-5-yl]-1-[3-(trifluoromethyl)phenyl]pyridazin-4(1H)-one], the melting point fell in the range of 164 to 165 °C.
`O=c1ccn(-c2cccc(C(F)(F)F)c2)nc1-c1ccnn1-c1ccc(F)cc1` [Example 2, 3-[1-(4-Fluorophenyl)-1H-pyrazol-5-yl]-1-[3-(trifluoromethyl)phenyl]pyridazin-4(1H)-one]: the melting point is 130 to 131 °C.
`COc1ccc(-n2nccc2-c2nn(-c3cccc(C(F)(F)F)c3)ccc2=O)cc1` [Example 4, 3-[1-(4-Methoxyphenyl)-1H-pyrazol-5-yl]-1-[3-(trifluoromethyl)phenyl]pyridazin-4(1H)-one] had a melting point of 173 to 174 °C.
As to `Cc1cccc(-n2nccc2-c2nn(-c3cccc(C(F)(F)F)c3)ccc2=O)c1` [Example 5, 3-[1-(3-Methylphenyl)-1H-pyrazol-5-yl]-1-[3-(trifluoromethyl)phenyl]pyridazin-4(1H)-one], the melting point is 142 to 143 °C.
On the same count and under the same terms, the same measure for `O=c1ccn(-c2cccc(C(F)(F)F)c2)nc1-c1ccnn1-c1cccc(F)c1` [Example 6, 3-[1-(3-Fluorophenyl)-1H-pyrazol-5-yl]-1-[3-(trifluoromethyl)phenyl]pyridazin-4(1H)-one]: 104 to 105 °C.
Take `Cc1ccccc1-n1nccc1-c1nn(-c2cccc(C(F)(F)F)c2)ccc1=O` [Example 7, 3-[1-(2-Methylphenyl)-1H-pyrazol-5-yl]-1-[3-(trifluoromethyl)phenyl]pyridazin-4(1H)-one]: the melting point is 126 to 127 °C.
As for `O=c1ccn(-c2cccc(C(F)(F)F)c2)nc1-c1ccnn1-c1ccccc1Cl` [Example 8, 3-[1-(2-Chlorophenyl)-1H-pyrazol-5-yl]-1-[3-(trifluoromethyl)phenyl]pyridazin-4(1H)-one], the melting point lay in the range of 139 to 140 °C.
`COc1ccccc1-n1nccc1-c1nn(-c2cccc(C(F)(F)F)c2)ccc1=O` [Example 9, 3-[1-(2-Methoxyphenyl)-1H-pyrazol-5-yl]-1-[3-(trifluoromethyl)phenyl]pyridazin-4(1H)-one] had a melting point of 146 to 147 °C.
The compound `O=c1ccn(-c2ccc(C(F)(F)F)cc2)nc1-c1ccnn1-c1ccccc1` [Example 11, 3-(1-Phenyl-1H-pyrazol-5-yl)-1-[4-(trifluoromethyl)phenyl]pyridazin-4(1H)-one] had a melting point of 237 to 238 °C.
Compound `O=c1ccn(-c2cccc(Cl)c2)nc1-c1ccnn1-c1ccccc1` [Example 12, 1-(3-Chlorophenyl)-3-(1-phenyl-1H-pyrazol-5-yl)pyridazin-4(1H)-one] returned a melting point of 146 to 147 °C.
In turn, `COc1ccc(-n2ccc(=O)c(-c3ccnn3-c3ccccc3)n2)cc1` [Example 14, 1-(4-Methoxyphenyl)-3-(1-phenyl-1H-pyrazol-5-yl)pyridazin-4(1H)-one] came in with a melting point of 179 to 180 °C.
With `O=c1ccn(-c2ccc(Cl)cc2)nc1-c1ccnn1-c1ccccc1` [Example 18, 1-(4-Chlorophenyl)-3-(1-phenyl-1H-pyrazol-5-yl)pyridazin-4(1H)-one], the melting point was 219 to 220 °C.
`Cc1ccccc1-n1ccc(=O)c(-c2ccnn2-c2ccccc2)n1` [Example 19, 1-(2-Methylphenyl)-3-(1-phenyl-1H-pyrazol-5-yl)pyridazin-4(1H)-one]: the melting point fell in the range of 120 to 121 °C.
`Cc1cccc(-n2ccc(=O)c(-c3ccnn3-c3ccccc3)n2)c1` [Example 20, 1-(3-Methylphenyl)-3-(1-phenyl-1H-pyrazol-5-yl)pyridazin-4(1H)-one]: the melting point lay in the range of 115 to 116 °C.
As to `COc1cccc(-n2ccc(=O)c(-c3ccnn3-c3ccccc3)n2)c1` [Example 21, 1-(3-Methoxyphenyl)-3-(1-phenyl-1H-pyrazol-5-yl)pyridazin-4(1H)-one], the melting point fell in the range of 110 to 111 °C.
As to `O=c1ccn(-c2ccccc2C(F)(F)F)nc1-c1ccnn1-c1ccccc1` [Example 22, 3-(1-Phenyl-1H-pyrazol-5-yl)-1-[2-(trifluoromethyl)phenyl]pyridazin-4(1H)-one], the melting point lay within 145 to 146 °C.
Compound `O=c1ccn(-c2ccccc2)nc1-c1ccnn1-c1ccccc1` [Example 24, 1-Phenyl-3-(1-phenyl-1H-pyrazol-5-yl)pyridazin-4(1H)-one] showed a melting point of 179 to 180 °C.
Compound `Cc1ccc(-n2ccc(=O)c(-c3ccnn3-c3ccccc3)n2)cc1` [Example 25, 1-(4-Methylphenyl)-3-(1-phenyl-1H-pyrazol-5-yl)pyridazin-4(1H)-one] yielded a melting point of 182 to 183 °C.
`O=c1ccn(-c2cccc(OC(F)F)c2)nc1-c1ccnn1-c1ccccc1` [Example 27, 1-[3-(Difluoromethoxy)phenyl]-3-(1-phenyl-1H-pyrazol-5-yl)pyridazin-4(1H)-one] had a melting point of 159 to 160 °C.
The compound `O=c1ccn(-c2ccc(OC(F)F)cc2)nc1-c1ccnn1-c1ccccc1` [Example 28, 1-[4-(Difluoromethoxy)phenyl]-3-(1-phenyl-1H-pyrazol-5-yl)pyridazin-4(1H)-one] showed a melting point of 175 to 176 °C.
On to `O=c1ccn(-c2ccccc2N2CCOCC2)nc1-c1ccnn1-c1ccccc1` [Example 29, 1-(2-Morpholin-4-ylphenyl)-3-(1-phenyl-1H-pyrazol-5-yl)pyridazin-4(1H)-one], for which the melting point was 200 to 201 °C.
Compound `O=c1ccn(-c2cccc(C(F)(F)F)c2)nc1-c1nncn1-c1ccccc1` [Example 40, 3-(4-Phenyl-4H-1,2,4-triazol-3-yl)-1-[3-(trifluoromethyl)phenyl]pyridazin-4(1H)-one] came in with a melting point of 103 to 104 °C.
For the compound `Cc1nnc(-c2nn(-c3cccc(C(F)(F)F)c3)ccc2=O)n1-c1ccccc1` [Example 41, 3-(5-Methyl-4-phenyl-4H-1,2,4-triazol-3-yl)-1-[3-(trifluoromethyl)phenyl]pyridazin-4(1H)-one], the melting point lay within 191 to 192 °C.
In the case of `Cc1cn(-c2cccc(C(F)(F)F)c2)nc(-c2ccnn2-c2ccccc2)c1=O` [Example 50, 5-Methyl-3-(1-phenyl-1H-pyrazol-5-yl)-1-[3-(trifluoromethyl)phenyl]pyridazin-4(1H)-one], the melting point fell in the range of 147 to 150 °C.
`Cc1cc(-c2nn(-c3cccc(C(F)(F)F)c3)ccc2=O)n(-c2ccccc2)n1` [Example 51, 3-(3-Methyl-1-phenyl-1H-pyrazol-5-yl)-1-[3-(trifluoromethyl)phenyl]pyridazin-4(1H)-one] registered a melting point of 167 to 168 °C.
The compound `COc1cn(-c2ccc(I)cc2F)nc(-c2ccnn2-c2ccccc2)c1=O` [Example 55, 1-(2-Fluoro-4-iodophenyl)-5-methoxy-3-(1-phenyl-1H-pyrazol-5-yl)pyridazin-4(1H)-one] gave a melting point of 194 to 196 °C.
`COc1cn(-c2ccc(C(F)(F)F)cc2F)nc(-c2ccnn2-c2ccccc2)c1=O` [Example 56, 1-[2-Fluoro-4-(trifluoromethyl)phenyl]-5-methoxy-3-(1-phenyl-1H-pyrazol-5-yl)pyridazin-4(1H)-one] came in with a melting point of 169 to 171 °C.
With `O=c1c(O)cn(-c2cccc(C(F)(F)F)c2)nc1-c1ccnn1-c1ccccc1` [Example 58, 5-Hydroxy-3-(1-phenyl-1H-pyrazol-5-yl)-1-[3-(trifluoromethyl)phenyl]pyridazin-4(1H)-one], the melting point lay within 246 to 248 °C.
Compound `CC(C)Oc1cn(-c2cccc(C(F)(F)F)c2)nc(-c2ccnn2-c2ccccc2)c1=O` [Example 60, 5-(1-Methylethoxy)-3-(1-phenyl-1H-pyrazol-5-yl)-1-[3-(trifluoromethyl)phenyl]pyridazin-4(1H)-one] had a melting point of 137 to 139 °C.
`O=c1c(OCC2CC2)cn(-c2cccc(C(F)(F)F)c2)nc1-c1ccnn1-c1ccccc1` [Example 61, 5-(Cyclopropylmethoxy)-3-(1-phenyl-1H-pyrazol-5-yl)-1-[3-(trifluoromethyl)phenyl]pyridazin-4(1H)-one] showed a melting point of 72 to 78 °C.
The same measure, in the same setting: as for `COCc1cn(-c2cccc(C(F)(F)F)c2)nc(-c2ccnn2-c2ccccc2)c1=O` [Example 66, 5-(Methoxymethyl)-3-(1-phenyl-1H-Pyrazol-5-yl)-1-[3-(trifluoromethyl)phenyl]pyridazin-4(1H)-one], the figure is 137 to 139 °C.

Another data set deals with T1, Human PDE10A enzyme (Homo sapiens, UniProt Q9Y233).
T1 construct: Human PDE10A enzyme was generated from Sf9 or COS-7 cells transfected with the full-length gene; His-tag; made in house; host or cells: Sf9 or COS-7 cells
T1 sequence (Q9Y233 267-1055): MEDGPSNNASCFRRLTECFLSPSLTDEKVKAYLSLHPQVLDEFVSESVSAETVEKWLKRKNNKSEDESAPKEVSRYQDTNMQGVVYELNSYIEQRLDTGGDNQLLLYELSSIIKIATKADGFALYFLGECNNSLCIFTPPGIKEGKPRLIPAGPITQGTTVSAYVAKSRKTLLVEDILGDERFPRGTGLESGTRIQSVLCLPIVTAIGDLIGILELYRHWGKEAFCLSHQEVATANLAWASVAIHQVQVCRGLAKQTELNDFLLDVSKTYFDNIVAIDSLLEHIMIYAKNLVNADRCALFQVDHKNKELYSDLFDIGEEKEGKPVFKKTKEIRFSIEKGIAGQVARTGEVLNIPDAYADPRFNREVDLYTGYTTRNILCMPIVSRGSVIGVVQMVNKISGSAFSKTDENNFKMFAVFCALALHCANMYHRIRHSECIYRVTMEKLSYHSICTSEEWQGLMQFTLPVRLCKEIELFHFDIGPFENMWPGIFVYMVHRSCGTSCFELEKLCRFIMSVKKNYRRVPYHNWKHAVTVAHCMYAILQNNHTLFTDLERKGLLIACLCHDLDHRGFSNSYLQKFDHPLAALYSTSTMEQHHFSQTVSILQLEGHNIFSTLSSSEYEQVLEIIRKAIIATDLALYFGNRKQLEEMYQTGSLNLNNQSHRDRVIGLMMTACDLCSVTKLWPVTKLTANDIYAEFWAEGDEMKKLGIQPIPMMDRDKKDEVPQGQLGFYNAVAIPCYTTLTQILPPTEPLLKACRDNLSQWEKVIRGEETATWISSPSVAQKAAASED
Nature of the data set: PDE enzyme inhibition, SPA (Scintillation Proximity Assay). To be noted: Table 2; compound at 0.1 μM; read-out: Percent inhibition (0.1 μM). In kind it is biochemical. The procedure:
Human PDE10A enzyme was generated from Sf9 or COS-7 cells transfected with the full-length gene. Cloned enzyme was extracted from homogenized cell pellets. The extracted enzyme from Sf9 cells was partially purified using His-tag affinity column. The enzyme was stored at −70° C. until use. PDE activity was measured using a SPA (Scintillation Proximity Assay) (GE Healthcare). To evaluate the inhibitory activity, 10 μL of serial diluted compounds were incubated with 20 μL of PDE enzyme in assay buffer (50 mM HEPES-NaOH, 8.3 mM MgCl2, 1.7 mM EGTA, 0.1% BSA (pH 7.4)) for 30 min. at room temperature. Final concentration of DMSO in the assay was 1 percent as compounds were tested in duplicate in 96-well half-area plates (Corning). To start the reaction, 10 μL of substrate [3H] cGMP (25 or 50 nM; enclosed in SPA kits from GE Healthcare or purchased from PerkinElmer, respectively) was added for a final assay volume of 40 μL. After 60 min incubation at room temperature, yttrium SPA beads containing Zinc sulphate were added (20 μL at 6 mg/mL) to terminate the PDE reaction. After being settled for 60 min., assay plates were counted in a scintillation counter (PerkinElmer) to allow calculation of inhibition rate and IC50. Inhibition rate was calculated on the basis of 0% control wells with DMSO and 100% control wells without enzyme.
`COc1cc(-n2cccn2)ccc1-n1cc(OC)c(=O)c(-c2ccnn2-c2ccccc2)n1` [Example 192, 5-Methoxy-1-[2-methoxy-4-(1H-pyrazol-1-yl)phenyl]-3-(1-phenyl-1H-pyrazol-5-yl)pyridazin-4(1H)-one]: the inhibition – broadly, the change of the read-out against control, counted positive when it falls – at 0.1 µM stood at 101%.

Staying with this data set, now noted: Table 2; human PDE10A, [3H]cGMP substrate.
As for `COc1cc(-n2cccn2)ccc1-n1cc(OC)c(=O)c(-c2ccnn2-c2ccccc2)n1` [Example 192, 5-Methoxy-1-[2-methoxy-4-(1H-pyrazol-1-yl)phenyl]-3-(1-phenyl-1H-pyrazol-5-yl)pyridazin-4(1H)-one], the pIC50 (as a rule, −log10 of the IC50, conventionally taken in molar units) was > 8.00.
